Test results published in patent EP1137645B1, “ALPHA-METHYLBENZYL-CONTAINING THIOUREA INHIBITORS OF HERPES VIRUSES CONTAINING A […] GROUP” (Wyeth, priority 1998, dated 2000).
Converted amounts (≈) assume the structure as drawn. Where two headings read alike, the source gives them in different places.

Experiments:
[1] = system: HSV- I; assay: HSV antiviral (ELISA) assay; assay type: cell-based; conditions: read-out: IC50 (ug/ml) HSV
How it was run: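 IC50 from fluorescence versus untreated control in a cell ELISA: anti-glycoprotein D antibody, β-galactosidase-conjugated secondary, 4-methyl umbelliferone read at 365/450 nm. Vero cells (2% FBS DMEM) received compound 30 min pre-infection with HSV-1 at MOI 0.006, fixed ~24 h post-infection.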

[2] = system: HCMV recombinant mutant virus whose genome contains the prokaryotic beta-glucuronidase gene; assay: microbe, parasite or virus in culture; assay type: cell-based, human cytomegalovirus; conditions: Human betaherpesvirus 5, Fibroblast
How it was run: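 Antiviral IC50 estimated from reduced reporter activity across compound amounts: lysates prepared 96 h after infection were tested with p-nitrophenyl- or methylumbelliferyl-glucuronide. Cells were human foreskin fibroblasts, infected alongside inhibitor with HCMV (e.g. RV145) expressing viral promoter-driven beta-glucuronidase.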

[3] = system: VZV strain Ellen; assay: VZV antiviral (ELISA) assay; assay type: cell-based
How it was run: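 HFF cells infected with VZV Ellen at multiplicity below 0.1 overnight, then mixed infected/uninfected cells seeded with compound in DMEM/2% FBS and incubated three days at 37°C, 5% CO2.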

[4] = read-out: IC50 ug/ml HCMV, HCMV, human foreskin fibroblasts
[5] = Human alphaherpesvirus 3, HFF, read-out: % inhibition 10 ug/ml VZV
[6] = Human alphaherpesvirus 3, HFF, read-out: IC50 (ug/ml) VZV
[7] = Human alphaherpesvirus 3, VZV strain Ellen, HFF cells, ELISA, read-out: IC50 (ug/ml) VZV
[8] = Human alphaherpesvirus 3, HFF, read-out: IC50 (ug/ml) VZV, VZV strain Ellen, HFF cells, ELISA
[9] = Human alphaherpesvirus 3, read-out: % inhibition 10 ug/ml VZV, 10 ug/ml, VZV strain Ellen, HFF cells, ELISA

## COc1ccc(NC(=S)Nc2ccc(NC(=O)c3cccc(F)c3)cc2)cc1Cl [Example 822, N-{4-[3-(3-Chloro-4-methoxy-phenyl)-thioureido]-phenyl}-3-fluoro-benzamide]
[1]; HSV- I, Vero cells, ELISA
  IC50: 3 µg/mL (≈ 6.98 µM)
[2]; [4]
  IC50: 3 µg/mL (≈ 6.98 µM)
[3]; [5]
  inhibition at 10 µg/mL: 0%
[3]; [6]
  IC50: > 10 µg/mL

## O=C(Nc1ccc(NC(=S)Nc2cc(Cl)cc(Cl)c2)cc1)c1ccccc1F [Example 934, N-{4-[3-(3,5-Dichloro-phenyl)-thioureido]-phenyl}-2-fluoro-benzamide]
[1]; HSV- I, Vero cells, ELISA
  IC50: > 10 µg/mL
[2]; [4]
  IC50: > 10 µg/mL
[3]; [5]
  inhibition at 10 µg/mL: 18%
[3]; [6]
  IC50: > 10 µg/mL

## CC(NC(=S)Nc1ccc(NC(=O)c2ccccc2F)cc1)c1ccccc1F (stereo not shown) [Example 778, 2-Fluoro-N-(4-{3-[1-(2-fluoro-phenyl)-ethyl]-thioureido}-phenyl)-benzamide]
[1]; HSV- I, Vero cells, ELISA
  IC50: > 10 µg/mL
[2]; read-out: IC50 ug/ml HCMV
  IC50: 0.8 µg/mL (≈ 1.94 µM)
[3]; [7]
  IC50: 3 µg/mL (≈ 7.29 µM)

## C[S+]([O-])c1ccc(NC(=S)Nc2ccc(NC(=O)c3c(F)cccc3F)cc2)cc1Cl (stereo not shown) [Example 392, N-{4-[3-(3-Chloro-4-methanesulfinyl-phenyl)-thioureido]-phenyl}-2,6-difluoro-benzamide]
[1]; HSV- I, Vero cells, ELISA
  IC50: > 10 µg/mL
[2]; [4]
  IC50: 0.5 µg/mL (≈ 1.04 µM)
[3]; [5]
  inhibition at 10 µg/mL: 92%
[3]; [6]
  IC50: 2 µg/mL (≈ 4.17 µM)

## CSc1ccc(NC(=S)Nc2ccc(NC(=O)c3ccccc3F)cc2Cl)cc1Cl [Example 460, N-{3-Chloro-4-[3-(3-chloro-4-methylsulfanyl-phenyl)-thioureido]-phenyl}-2-fluoro-benzamide]
[1]; HSV- I, Vero cells, ELISA
  IC50: 0.09 µg/mL (≈ 0.187 µM)
[2]; [4]
  IC50: 2 µg/mL (≈ 4.16 µM)
[3]; [5]
  inhibition at 10 µg/mL: 50%
[3]; [6]
  IC50: > 10 µg/mL

## Nc1cc(Cl)cc(NC(=S)Nc2ccc(NC(=O)c3ccccc3F)cc2)c1 [Example 442, N-{4-[3-(3-Amino-5-chloro-phenyl)-thioureido]-phenyl}-2-fluoro-benzamide]
[1]; HSV- I, Vero cells, ELISA
  IC50: 1 µg/mL (≈ 2.41 µM)
[2]; [4]
  IC50: 2 µg/mL (≈ 4.82 µM)
[3]; [5]
  inhibition at 10 µg/mL: 81%
[3]; [6]
  IC50: 8 µg/mL (≈ 19.3 µM)

## CC(NC(=S)Nc1ccc(NC(=O)c2ccc(F)cc2)cc1)c1ccc(F)cc1 (stereo not shown) [Example 801, 4-Fluoro-N-(4-{3-[1-(4-fluoro-phenyl)-ethyl]-thioureido}-phenyl)-benzamide]
[1]; HSV- I, Vero cells, ELISA
  IC50: > 10 µg/mL
[2]; read-out: IC50 ug/ml HCMV
  IC50: > 10 µg/mL
[3]; [7]
  IC50: > 7.5 µg/mL

## CC(C)c1cccc(NC(=S)Nc2ccc(NC(=O)c3ccccc3F)cc2)c1 [Example 452, 2-Fluoro-N-{4-[3-(3-isopropyl-phenyl)-thioureido]-phenyl}-benzamide]
[1]; HSV- I, Vero cells, ELISA
  IC50: 4 µg/mL (≈ 9.82 µM)
[2]; [4]
  IC50: 2 µg/mL (≈ 4.91 µM)
[3]; [5]
  inhibition at 10 µg/mL: 75%
[3]; [6]
  IC50: 1 µg/mL (≈ 2.45 µM)

## CC(NC(=S)Nc1ccc(NC(=O)c2ccccc2F)cc1)c1ccc(C(F)(F)F)cc1 (stereo not shown) [Example 787, 2-Fluoro-N-(4-{3-[1-(4-trifluoromethyl-phenyl)-ethyl]-thioureido}-phenyl)-benzamide]
[1]; HSV- I, Vero cells, ELISA
  IC50: > 10 µg/mL
[2]; read-out: IC50 ug/ml HCMV
  IC50: 1.2 µg/mL (≈ 2.6 µM)
[3]; [7]
  IC50: > 7.5 µg/mL

## COc1cc(OC)c(NC(=S)Nc2ccc(NC(=O)c3cccc(N(C)C)c3)cc2)cc1Cl [Example 136, N-{4-[3-(5-Chloro-2,4-dimethoxy-phenyl)-thioureido]-phenyl}-3-dimethylamino-benzamide]
[1]; HSV- I, Vero cells, ELISA
  IC50: 1 µg/mL (≈ 2.06 µM)
[2]; [4]
  IC50: 10 µg/mL (≈ 20.6 µM)
[3]; [5]
  inhibition at 10 µg/mL: 40%
[3]; [6]
  IC50: > 10 µg/mL

## O=C(Nc1ccc(NC(=S)Nc2ccc(OC(F)(F)F)c(Br)c2)cc1)c1ccccc1F [Example 549, N-{4-[3-(3-Bromo-4-trifluoromethoxy-phenyl)-thioureido]-phenyl}-2-fluoro-benzamide]
[1]; Vero
  IC50: > 10 µg/mL
[2]; [4]
  IC50: > 10 µg/mL
[3]; [8]
  IC50: > 10 µg/mL

## NC(=O)c1cccc(NC(=S)Nc2ccc(NC(=O)c3ccccc3F)cc2)c1 [Example 952, N-[4-[[[[3-(Aminocarbonyl)phenyl]amino]thioxomethyl]amino]phenyl]-2-fluoro-benzamide]
[1]; HSV- I, Vero cells, ELISA
  IC50: > 10 µg/mL
[2]; read-out: IC50 ug/ml HCMV
  IC50: > 10 µg/mL
[3]; [9]
  inhibition at 10 µg/mL: 22%
[3]; [7]
  IC50: > 10 µg/mL

## Cc1ccc(NC(=S)Nc2ccc(NC(=O)c3ccccc3C)cc2)cc1Cl [Example 234, N-{4-[3-(3-Chloro-4-methyl-phenyl)-thioureido]-phenyl}-2-methyl-benzamide]
[1]; HSV- I, Vero cells, ELISA
  IC50: 0.2 µg/mL (≈ 0.488 µM)
[2]; [4]
  IC50: 1 µg/mL (≈ 2.44 µM)
[3]; [5]
  inhibition at 10 µg/mL: 68%
[3]; [6]
  IC50: > 10 µg/mL

## CC(=O)Oc1ccc(C(=O)Nc2ccc(NC(=S)NC(C)c3ccc(F)cc3)cc2)cc1 (stereo not shown) [Example 757, Acetic acid 4-(4-{3-[1-(4-fluoro-phenyl)-ethyl]-thioureido}-phenylcarbamoyl)-phenyl ester]
[1]; Vero
  IC50: > 10 µg/mL
[2]; [4]
  IC50: > 10 µg/mL
[3]; [8]
  IC50: 1.5 µg/mL (≈ 3.32 µM)

## CC(NC(=S)Nc1ccc(NC(=O)c2ccc3ncccc3c2)cc1)c1ccc(F)cc1 (stereo not shown) [Example 990, Quinoline-6-carboxylic acid (4-{3-[1-(4-fluoro-phenyl)-ethyl]-thioureido}-phenyl)-amide]
[1]; HSV- I, Vero cells, ELISA
  IC50: 8.9 µg/mL (≈ 20 µM)
[2]; [4]
  IC50: 4.4 µg/mL (≈ 9.9 µM)
[3]; [6]
  IC50: 3.5 µg/mL (≈ 7.87 µM)

## CC(NC(=S)Nc1ccc(NC(=O)c2ccnc3ccccc23)cc1)c1ccc(F)cc1 (stereo not shown) [Example 989, Quinoline-4-carboxylic acid (4-{3-[1-(4-fluoro-phenyl)-ethyl]-thioureido}-phenyl)-amide]
[1]; HSV- I, Vero cells, ELISA
  IC50: 4.1 µg/mL (≈ 9.22 µM)
[2]; [4]
  IC50: 2.9 µg/mL (≈ 6.52 µM)
[3]; [6]
  IC50: 3 µg/mL (≈ 6.75 µM)

## CC(NC(=S)Nc1ccc(NC(=O)c2ccccc2F)cc1)c1ccc(C#N)cc1 (stereo not shown) [Example 792, N-(4-{3-[1-(4-Cyano-phenyl)-ethyl]-thioureido}-phenyl)-2-fluoro-benzamide]
[1]; HSV- I, Vero cells, ELISA
  IC50: > 10 µg/mL
[2]; read-out: IC50 ug/ml HCMV
  IC50: 5 µg/mL (≈ 11.9 µM)
[3]; [7]
  IC50: > 7.5 µg/mL

## COCCOc1ccc(NC(=S)Nc2ccc(NC(=O)c3ccccc3F)cc2)cc1Cl [Example 996, N-(4-{3-[3-Chloro-4-(2-methoxy-ethoxy)-phenyl]-thioureido}-phenyl)-2-fluoro-benzamide]
[1]; Vero
  IC50: > 10 µg/mL
[2]; [4]
  IC50: > 10 µg/mL
[3]; [8]
  IC50: 10 µg/mL (≈ 21.1 µM)

## Cc1cccc(C(C)NC(=S)Nc2ccc(NC(=O)c3ccccc3F)cc2)c1 (stereo not shown) [Example 776, 2-Fluoro-N-{4-[3-(1-m-tolyl-ethyl)-thioureido]-phenyl}-benzamide]
[1]; Vero
  IC50: > 10 µg/mL
[2]; [4]
  IC50: 0.9 µg/mL (≈ 2.21 µM)
[3]; [8]
  IC50: > 7.5 µg/mL

## CN(C)c1cc(Cl)cc(NC(=S)Nc2ccc(NC(=O)c3ccccc3F)cc2)c1 [Example 523, N-{4-[3-(3-Chloro-5-dimethylamino-phenyl)-thioureido]-phenyl}-2-fluoro-benzamide]
[1]; HSV- I, Vero cells, ELISA
  IC50: 0.6 µg/mL (≈ 1.35 µM)
[2]; [4]
  IC50: 3.2 µg/mL (≈ 7.22 µM)
[3]; [5]
  inhibition at 10 µg/mL: 75%
[3]; [6]
  IC50: 4 µg/mL (≈ 9.03 µM)

## O=C(Nc1ccc(NC(=S)Nc2ccc3scnc3c2)cc1)c1ccccc1F [Example 484, N-[4-(3-Benzothiazol-5-yl-thioureido)-phenyl]-2-fluoro-benzamide]
[1]; HSV- I, Vero cells, ELISA
  IC50: 0.4 µg/mL (≈ 0.947 µM)
[2]; [4]
  IC50: > 10 µg/mL
[3]; [5]
  inhibition at 10 µg/mL: 28%
[3]; [6]
  IC50: > 10 µg/mL

## NNC(=O)c1cccc(NC(=S)Nc2ccc(NC(=O)c3ccccc3F)cc2)c1 [Example 463, 2-Fluoro-N-{4-[3-(3-hydrazinocarbonyl-phenyl)-thioureido]-phenyl}-benzamide]
[1]; HSV- I, Vero cells, ELISA
  IC50: > 10 µg/mL
[2]; read-out: IC50 ug/ml HCMV
  IC50: > 10 µg/mL
[3]; [9]
  inhibition at 10 µg/mL: 19%
[3]; [7]
  IC50: > 10 µg/mL

## CC(NC(=S)Nc1ccc(NC(=O)c2ccccc2F)cc1)c1ccccc1C(F)(F)F (stereo not shown) [Example 785, 2-Fluoro-N-(4-{3-[1-(2-trifluoromethyl-phenyl)-ethyl]-thioureido}-phenyl)-benzamide]
[1]; HSV- I, Vero cells, ELISA
  IC50: > 10 µg/mL
[2]; read-out: IC50 ug/ml HCMV
  IC50: > 2.2 µg/mL
[3]; [7]
  IC50: > 7.5 µg/mL

## CC(NC(=S)Nc1ccc(NC(=O)c2cccc3cccnc23)cc1)c1ccc(F)cc1 (stereo not shown) [Example 991, Quinoline-8-carboxylic acid (4-{3-[1-(4-fluoro-phenyl)-ethyl]-thioureido}-phenyl)-amide]
[1]; HSV- I, Vero cells, ELISA
  IC50: > 10 µg/mL
[2]; [4]
  IC50: 7.4 µg/mL (≈ 16.6 µM)
[3]; [6]
  IC50: 0.1 µg/mL (≈ 0.225 µM)

## CSc1ccc(NC(=S)Nc2ccc(NC(=O)c3ccccc3C)cc2)cc1Cl [Example 342, N-{4-[3-(3-Chloro-4-methylsulfanyl-phenyl)-thioureido]-phenyl}-2-methyl-benzamide]
[1]; HSV- I, Vero cells, ELISA
  IC50: 0.2 µg/mL (≈ 0.452 µM)
[2]; [4]
  IC50: 1.4 µg/mL (≈ 3.17 µM)
[3]; [5]
  inhibition at 10 µg/mL: 62%
[3]; [6]
  IC50: > 10 µg/mL
